Among the data in US20220177508A1, “C10-Cyclic Substituted 13-Membered Macrolides and Uses Thereof” (Zikani Therapeutics, Inc., priority 2018, published 2022) are MIC values, retold here.

Converted amounts (≈) assume the structure as drawn.

In general, MIC refers to the lowest concentration found to suppress growth.

Common to all, as to assay type: cell-based
Test [1] relates to P. aeruginosa MP-3. Briefly: Broth dilution MIC determination (CLSI), P. aeruginosa MP-3. The conditions noted are these: Pseudomonas aeruginosa, MP3; strain MP-3, broth dilution.
The test system of test [2] is A. baumannii MP-15. Briefly: Broth dilution MIC determination (CLSI), A. baumannii MP-15. The following applies: Acinetobacter baumannii, MP15; strain MP-15, broth dilution; read-out: MIC A. baumanii MP-15. A general note: Dilution methods test growth across graded concentrations, often in twofold steps.
Test [3] has as its system S. aureus MP-12. Briefly: Broth dilution MIC determination (CLSI), S. aureus MP-12. The conditions noted are these: Staphylococcus aureus, MP12; strain MP-12, broth dilution.
Test [4] has as its system K. pneumoniae MP-546. Put plainly: Broth dilution MIC determination (CLSI), K. pneumoniae MP-546. The conditions noted are these: Klebsiella pneumoniae, MP546; strain MP-546, broth dilution.
Test [5] has as its system E. coli MP-4. Put plainly: Broth dilution MIC determination (CLSI), E. coli MP-4. The following applies: Escherichia coli, MP4; strain MP-4, broth dilution; read-out: MIC E. coli MP-4.

For the compound `CO[C@]1(C)C[C@@H](C)CN(C)[C@H](C2CN(CC(=O)NCc3ccccc3)C2)COC(=O)C(C)(C)C(=O)[C@H](C)[C@H]1O[C@@H]1O[C@H](C)C[C@H](N(C)C)[C@H]1O` [Compound 20, N-benzyl-2-(3-((3R,6R,8R,9R,10R)-9-(((2S,3R,4S,6R)-4-(dimethylamino)-3-hydroxy-6-methyltetrahydro-2H-pyran-2-yl)oxy)-8-methoxy-4,6,8,10,12,12-hexamethyl-11,13-dioxo-1-oxa-4-azacyclotridecan-3-yl)azetidin-1-yl)acetamide], the MIC in test [1] was above 32 µg/mL; in test [2], above 32 µg/mL; in test [3] it was 4 to 32 µg/mL (≈ 5.69 to 45.5 µM); in test [4], 4 to 32 µg/mL (≈ 5.69 to 45.5 µM); in test [5], below 4 µg/mL.
As for `CO[C@]1(C)C[C@@H](C)CN(CC(C)C)[C@H](C2CN(CC(C)C)C2)COC(=O)C(C)(C)C(=O)[C@H](C)[C@H]1O[C@@H]1O[C@H](C)C[C@H](N(C)C)[C@H]1O` [Compound 21, (3R,6R,8R,9R,10R)-9-(((2S,3R,4S,6R)-4-(dimethylamino)-3-hydroxy-6-methyltetrahydro-2H-pyran-2-yl)oxy)-4-isobutyl-3-(1-isobutylazetidin-3-yl)-8-methoxy-6,8,10,12,12-pentamethyl-1-oxa-4-azacyclotridecane-11,13-dione], the MIC in test [1], in test [2], in test [3], in test [4] and in test [5] was above 32 µg/mL in each case.
As to `CO[C@]1(C)C[C@@H](C)CN(C)[C@@H]([C@@H]2CCCN(C)C2)COC(=O)C(C)(C)C(=O)[C@H](C)[C@H]1O[C@@H]1O[C@H](C)C[C@H](N(C)C)[C@H]1O` [Compound 23, (3S,6R,8R,9R,10R)-9-(((2S,3R,4S,6R)-4-(dimethylamino)-3-hydroxy-6-methyltetrahydro-2H-pyran-2-yl)oxy)-8-methoxy-4,6,8,10,12,12-hexamethyl-3-((R)-1-methylpiperidin-3-yl)-1-oxa-4-azacyclotridecane-11,13-dione], the MIC was above 32 µg/mL in test [1]; above 32 µg/mL in test [2]; above 32 µg/mL in test [3]; 4 to 32 µg/mL (≈ 6.69 to 53.5 µM) in test [4]; 4 to 32 µg/mL (≈ 6.69 to 53.5 µM) in test [5].
As for `CN[C@H]1CC[C@H]([C@H]2COC(=O)C(C)(C)C(=O)[C@H](C)[C@@H](O[C@@H]3O[C@H](C)C[C@H](N(C)C)[C@H]3O)[C@](C)(OC)C[C@@H](C)CN2C)CC1` [Compound 26, (3S,6R,8R,9R,10R)-9-(((2S,3R,4S,6R)-4-(dimethylamino)-3-hydroxy-6-methyltetrahydro-2H-pyran-2-yl)oxy)-8-methoxy-4,6,8,10,12,12-hexamethyl-3-((1r,4S)-4-(methylamino)cyclohexyl)-1-oxa-4-azacyclotridecane-11,13-dione], the MIC in test [1] is above 32 µg/mL; in test [2], above 32 µg/mL; in test [3] it was above 32 µg/mL; in test [4] it was above 32 µg/mL; in test [5] it was 4 to 32 µg/mL (≈ 6.54 to 52.3 µM).
As to `CO[C@]1(C)C[C@@H](C)CN(CC(C)C)[C@H](C2CN(C(=O)CN(C)C)C2)COC(=O)C(C)(C)C(=O)[C@H](C)[C@H]1O[C@@H]1O[C@H](C)C[C@H](N(C)C)[C@H]1O` [Compound 27, (3R,6R,8R,9R,10R)-9-(((2S,3R,4S,6R)-4-(dimethylamino)-3-hydroxy-6-methyltetrahydro-2H-pyran-2-yl)oxy)-3-(1-(dimethylglycyl)azetidin-3-yl)-4-isobutyl-8-methoxy-6,8,10,12,12-pentamethyl-1-oxa-4-azacyclotridecane-11,13-dione], the MIC in test [1], in test [2], in test [3], in test [4] and in test [5] was above 32 µg/mL throughout.
Consider `CO[C@]1(C)C[C@@H](C)CN(C)[C@H](C2CN(C(=O)CN(C)C)C2)COC(=O)C(C)(C)C(=O)[C@H](C)[C@H]1O[C@@H]1O[C@H](C)C[C@H](N(C)C)[C@H]1O` [Compound 28, (3R,6R,8R,9R,10R)-9-(((2S,3R,4S,6R)-4-(dimethylamino)-3-hydroxy-6-methyltetrahydro-2H-pyran-2-yl)oxy)-3-(1-(dimethylglycyl)azetidin-3-yl)-8-methoxy-4,6,8,10,12,12-hexamethyl-1-oxa-4-azacyclotridecane-11,13-dione], for which the MIC in test [1] was above 32 µg/mL; in test [2], above 32 µg/mL; in test [3] it was 4 to 32 µg/mL (≈ 6.24 to 49.9 µM); in test [4], below 4 µg/mL; in test [5], below 4 µg/mL.
With `CCCN1CC([C@H]2COC(=O)C(C)(C)C(=O)[C@H](C)[C@@H](O[C@@H]3O[C@H](C)C[C@H](N(C)C)[C@H]3O)[C@](C)(OC)C[C@@H](C)CN2C)C1` [Compound 29, (3S,6R,8R,9R,10R)-9-(((2S,3R,4S,6R)-4-(dimethylamino)-3-hydroxy-6-methyltetrahydro-2H-pyran-2-yl)oxy)-8-methoxy-4,6,8,10,12,12-hexamethyl-3-(1-propylazetidin-3-yl)-1-oxa-4-azacyclotridecane-11,13-dione], the MIC is above 32 µg/mL in test [1]; above 32 µg/mL in test [2]; above 32 µg/mL in test [3]; 4 to 32 µg/mL (≈ 6.69 to 53.5 µM) in test [4]; below 4 µg/mL in test [5].
For the compound `CO[C@]1(C)C[C@@H](C)CN(C)[C@H](c2ccc(Br)cc2)COC(=O)C(C)(C)C(=O)[C@H](C)[C@H]1O[C@@H]1O[C@H](C)C[C@H](N(C)C)[C@H]1O` [Compound 33, (3R,6R,8R,9R,10R)-3-(4-bromophenyl)-9-(((2S,3R,4S,6R)-4-(dimethylamino)-3-hydroxy-6-methyltetrahydro-2H-pyran-2-yl)oxy)-8-methoxy-4,6,8,10,12,12-hexamethyl-1-oxa-4-azacyclotridecane-11,13-dione], the MIC in test [1] was above 32 µg/mL; in test [2], above 32 µg/mL; in test [3] it was above 32 µg/mL; in test [4], above 32 µg/mL; in test [5], 4 to 32 µg/mL (≈ 6.1 to 48.8 µM).
With `CO[C@]1(C)C[C@@H](C)CN(C)[C@@H]([C@H]2CCCN(C(=O)CN(C)C)C2)COC(=O)C(C)(C)C(=O)[C@H](C)[C@H]1O[C@@H]1O[C@H](C)C[C@H](N(C)C)[C@H]1O` [Compound 34, (3S,6R,8R,9R,10R)-9-(((2S,3R,4S,6R)-4-(dimethylamino)-3-hydroxy-6-methyltetrahydro-2H-pyran-2-yl)oxy)-3-((S)-1-(dimethylglycyl)piperidin-3-yl)-8-methoxy-4,6,8,10,12,12-hexamethyl-1-oxa-4-azacyclotridecane-11,13-dione], the MIC is above 32 µg/mL in test [1]; above 32 µg/mL in test [2]; above 32 µg/mL in test [3]; above 32 µg/mL in test [4]; 4 to 32 µg/mL (≈ 5.98 to 47.8 µM) in test [5].
In the case of `CO[C@]1(C)C[C@@H](C)CN(C)[C@H](C2CN(C(C)C)C2)COC(=O)C(C)(C)C(=O)[C@H](C)[C@H]1O[C@@H]1O[C@H](C)C[C@H](N(C)C)[C@H]1O` [Compound 35, (3R,6R,8R,9R,10R)-9-(((2S,3R,4S,6R)-4-(dimethylamino)-3-hydroxy-6-methyltetrahydro-2H-pyran-2-yl)oxy)-3-(1-isopropylazetidin-3-yl)-8-methoxy-4,6,8,10,12,12-hexamethyl-1-oxa-4-azacyclotridecane-11,13-dione], the MIC was above 32 µg/mL in test [1]; above 32 µg/mL in test [2]; above 32 µg/mL in test [3]; 4 to 32 µg/mL (≈ 6.69 to 53.5 µM) in test [4]; below 4 µg/mL in test [5].
